“And” between values parts separate entries of the source, which are not always exact repeats. Equal values may be shown once.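 Results reflect a 48-hour exposure of cells in 96-well plates to compound at five concentrations. GI50: concentration for 50% inhibition of growth. Definition used: TGI = concentration required for complete inhibition of growth.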
Experiments:
Assay in all cases: growth of human tumour cells (NCI), 48 h
SF-295 CNS = system: SF-295 CNS
SNB-19 CNS = system: SNB-19 CNS
OVCAR-5 ovarian = system: OVCAR-5 ovarian
MOLT-4 leukemia = system: MOLT-4 leukemia
HCT-15 colon = system: HCT-15 colon
HCC-2998 colon = system: HCC-2998 colon
A549 NSCLC = system: A549 NSCLC
UO-31 renal = system: UO-31 renal
MALME-3M melanoma = system: MALME-3M melanoma
SK-OV-3 ovarian = system: SK-OV-3 ovarian

Row | SMILES | GI50 (SF-295 CNS) | TGI (SF-295 CNS) [µM] | GI50 (SNB-19 CNS) | TGI (SNB-19 CNS) | GI50 (OVCAR-5 ovarian) [µM] | TGI (OVCAR-5 ovarian) [µM] | GI50 (MOLT-4 leukemia) [µM] | TGI (MOLT-4 leukemia) [µM] | GI50 (HCT-15 colon) | TGI (HCT-15 colon) | GI50 (HCC-2998 colon) [µM] | TGI (HCC-2998 colon) [µM] | GI50 (A549 NSCLC) [µM] | TGI (A549 NSCLC) | GI50 (UO-31 renal) | TGI (UO-31 renal) | GI50 (MALME-3M melanoma) [µM] | TGI (MALME-3M melanoma) | GI50 (SK-OV-3 ovarian) | TGI (SK-OV-3 ovarian)
1 | O=S(=O)(NC1=NCCN1C(=S)SN1CCn2c1nsc2=S)c1ccc(Br)cc1 | 46.2 µM | > 100 | > 100 µM | > 100 µM | > 100 | > 100 | 27.1 | > 100 | 31.8 µM | > 100 µM | 63.9 | > 100 | > 100 | > 100 µM | 61 µM | > 100 µM | 11.7 | 56.3 µM | 37800 nM | > 100 µM
2 | CC1=C(C(=O)Nc2ccccc2C)C(c2ccc(Cl)c(Cl)c2)C(C(=O)Nc2ccccc2C)=C(C)N1 |  | 43.2 |  | > 100 µM |  | 53.5 |  | 48.8 |  | 47.2 µM |  | 69.9 |  | > 100 µM |  | > 100 µM |  | 52.3 µM |  | 81.4 µM
3 | O=C1OC(CC(=O)c2ccc(Cl)c(Cl)c2)C(Cl)=C1Cl (configuration not stated) |  | > 100 |  | > 100 µM |  | > 100 |  | > 100 |  | > 100 µM |  | > 100 |  | > 100 µM |  | > 100 µM |  | > 100 µM |  | > 100 µM
4 | CC(=O)[O-].CC(=O)[O-].[Pt+2].c1cscn1.c1cscn1 | > 100 µM | > 100 | > 100 µM | > 100 µM | > 100 | > 100 | 36.1 | > 100 | 77.5 µM | > 100 µM | > 100 | > 100 | 45.1 | > 100 µM | > 100 µM | > 100 µM | > 100 | > 100 µM | > 100000 nM | > 100 µM
5 | COC(=O)C1C(C(=O)OC)C2(OC)c3ccccc3-c3ccccc3C12 (configuration not stated) |  | > 100 |  | > 100 µM |  | > 100 |  | 43.6 |  | > 100 µM |  | > 100 |  | > 100 µM |  | > 100 µM |  | > 100 µM |  | > 100 µM
6 | CCOC(=O)C(N)C[S][Sn]([CH3])([CH3])[Cl] (configuration not stated) | > 100 µM | > 100 | > 100 µM | > 100 µM | > 100 | > 100 | > 65.2 | > 100 | > 79.1 µM | > 100 µM | > 100 | > 100 | > 100 | > 100 µM | > 100 µM | > 100 µM | > 100 | > 100 µM | > 100000 nM | > 100 µM
7 | CCCCOC(=O)NC(=O)c1cn(CCCOC(=O)CCCCCCCCC(=O)OCCCn2cc(C(=O)NC(=O)OCCCC)c(=O)[nH]c2=O)c(=O)[nH]c1=O |  | > 100 |  | > 100 µM |  | > 100 |  | > 100 |  | > 100 µM |  | > 100 |  | > 100 µM |  | > 100 µM |  | > 100 µM |  | > 100 µM
8 | NC(=O)C(=Cc1ccc(C(O)P(=O)(O)O)cc1)C(N)=O (configuration not stated) |  | > 100 |  | > 100 µM |  | > 100 |  | > 100 |  | > 100 µM |  | > 100 |  | > 100 µM |  | > 100 µM |  | > 100 µM |  | > 100 µM
9 | O=C1c2ccccc2C(=O)N1CCCSc1ccccc1 |  | > 100 |  | > 100 µM |  | > 100 |  | > 100 |  | > 100 µM |  | > 100 |  | > 100 µM |  | > 100 µM |  | > 100 µM |  | > 100 µM
10 | COc1ccccc1N1C(=O)/C(=C/c2ccc(N(CCC#N)CCC#N)cc2C)N=C1c1cc([N+](=O)[O-])ccc1Cl |  | > 100 |  | > 100 µM |  | > 100 |  | > 100 |  | > 100 µM |  | > 100 |  | > 100 µM |  | > 100 µM |  | > 100 µM |  | > 100 µM
11 | CC(=O)N[C@H]1C=C[C@@H]2/C=C(C)/C=C/[C@@H](C)[C@H]([C@H](C)[C@H](O)[C@@H](C)NC(C)=O)OC(=O)/C=C/C=C(C)\C=C\[C@]2(C)C1 | 0.00449 µM and 0.0045 µM |  | 0.256 µM and 0.072 µM | 4.65 µM and > 45 µM | 14.1 | > 45 | 11 | > 45 | 0.0361 µM and 0.00939 µM | 4.65 µM and > 45 µM | 5.04 | > 45 |  | 4.65 µM and > 45 µM | 0.00414 µM and 0.0045 µM | 4.65 µM and 10.6 µM |  | 4.65 µM and 24.7 µM | 11.7 nM and 4.5 nM | 4.65 µM and > 45 µM
12 | Cn1c([N+](=O)[O-])cnc1/C=C1\Oc2ccccc2C1=O | 1.65 µM | 6.19 | 1.47 µM | 5.58 µM | 1.99 | 6.63 | 0.159 | 0.758 | 0.193 µM | 0.675 µM | 1.9 | 5.06 | 1.02 | 5.12 µM | 0.309 µM | 1.71 µM | 0.626 | 3.2 µM | 1620 nM | 6.34 µM
13 | CC[C@H](NC(=O)[C@H](C)NC)C(=O)N1C[C@@H](O)C[C@H]1Cc1c(-c2[nH]c3cc(F)ccc3c2C[C@@H]2C[C@H](O)CN2C(=O)[C@H](CC)NC(=O)[C@H](C)NC)[nH]c2cc(F)ccc12 | > 100 µM | > 100 | > 100 µM | > 100 µM | > 100 | > 100 | 74.4 | > 100 | > 100 µM | > 100 µM | 96.9 | > 100 | > 100 | > 100 µM | > 100 µM | > 100 µM | > 100 | > 100 µM | < 10.4 nM | 0.0189 µM
14 | ClCc1cccc(Cn2cnc3c(NC45CC6CC(CC(C6)C4)C5)ncnc32)c1 | 15.9 µM | 33.3 | 17.2 µM | 44.2 µM | 19.2 | 36.4 | 9.92 | 36 | 20.4 µM | 47.5 µM | 16.7 | 32.2 | 21.7 | > 60.1 µM | 14.5 µM | 31.4 µM | 14.6 | 32.4 µM | 21100 nM | 42.3 µM
15 | CCCCc1c2c(nc3c1CCC/C3=C\c1ccccc1)C(=O)CCC2 |  | 40.3 |  | 44.2 µM |  | 43.1 |  | 43.4 |  | 51.9 µM |  | 35.2 |  | 62 µM |  | 61.8 µM |  | 52 µM |  | 67.2 µM

From PubChem BioAssay (NCI)
